Measurements as given in US20220079962A1, “NUTRITIONAL COMPOSITION COMPRISING 2'FUCOSYLLACTOSE AND DIETARY BUTYRATE” (N.V. Nutricia, priority 2019, published 2022).

Tests used:
Caco-2 cell monolayer = test: DON-induced impairment of Caco-2 cell monolayer integrity (TEER, lucifer yellow flux); type: cell-based, human
Description: Caco-2 cells were used according to established methods. In brief: cells were cultured in Dulbecco's modified Eagle medium (DMEM) and seeded at a density of 0.3×10^5 cells into 0.3 cm^2 high pore density (0.4 μm) inserts with a polyethylene terephthalate membrane (BD Biosciences, Franklin Lakes, N.J., USA) placed in a 24-well plate. The Caco-2 cells were maintained in a humidified atmosphere of 95 air and 5% CO2 at 37° C.
Caco-2 cell monolayers were thus grown in a transwell system, which is a model for intestinal barrier function. The monolayers were pretreated for 24 h with different GLs, including beta3′-GL, alpha3′-GL, beta4′-GL and beta6′-GL in a concentration of 0.75 wt. % of the GL, before being exposed to the fungal toxin deoxynivalenol (DON), which is a trigger and model compound to impair intestinal barrier. DON was diluted to a final concentration of 4.2 μM in complete cell medium and added to the apical side as well as to the basolateral side of the transwell inserts. […] Incubation with DON was 24 h.
Measurements of the transepithelial electrical resistance (TEER) and lucifer yellow (LY) permeability were conducted to investigate barrier integrity. For TEER measurements a Millicel-ERS voltohmmeter connected to a pair of chopsticks electrodes was used to measure the TEER values. Results are expressed as a percentage of the initial value. For paracellular tracer flux assay the membrane impermeable lucifer yellow (LY) (Sigma, St Louis, Mo., USA) was added in a concentration of 16 μg/ml to the apical compartment in the transwell plate for 4 h, and the paracellular flux was determined by measuring the fluorescence intensity in the basolateral compartment with a spectrophotofluorimeter (FLUOstar Optima, BMG Labtech, Offenburg, Germany) set at excitation and emission wavelengths of 410 and 520 nm, respectively. Release of interleukin-8 (IL-8 or CXCL8), which is a typical marker for inflammation, was quantified in the medium of the apical side and the basolateral side of the Caco-2 transwell inserts in response to the treatments. CXCL8 concentrations were measured by using the human IL-8 ELISA assay (BD Biosciences, Pharmingem, San Diego, Calif., USA) according to manufacturer's instructions. For more details on materials and methods see Akbari et al, 2016, Eur J Nutr. 56(5):1919-1930.

Bifidobacteria = test: Fecal slurry fermentation, CFU of total Bifidobacteria
Description: A 32 well plate that can handle low pH was used. The wells of this plate were filled with fecal solution. 2.5% (w/v) of the different sterile carbohydrate solutions (3′-GL, 2′-FL, 2′-FL/3′-GL (2.0+0.5%). and Glucose were added to the fecal slurry according to a template.
The experiment was started, and pH setpoint was either 5.5 (facial inoculum from infant 1, vaginally born, breast fed) or pH 6.0 (Inoculum from infant 2, vaginally born, breast fed) with continuous pH regulation, and temperature 37° C., humidity 85%, OD control. At 4, 8 and 24 hours a sample is taken for CFU determination on TOS-propionate MUP agar (total Bifidobacteria), XLD agar for Salmonella enteriditis S29, and Simons citrate inositol agar for Klebsiella pneumonia K2 and for SCFA, D- and L Lactate and ammonia analysis. Fecal pellet was used for 16s DNA sequencing. For both inocula the extent of fermentation, as measured by NaOH consumption, i.e. acid production, was highest with the combination of 3′-GU2′-FL, when compared to 3′-GL or 2′-FL alone. The rate of initial acidification was high for 3′-GL and for 3′-GL/2′-FL. […] As the amount of carbohydrates that can be fermented is the same in the reaction vessels, the higher total acidification with the combination is indicative for an unexpected, synergistic effect of the combination of 2′-FL and 3′-GL. The SCFA that were produced was for the largest part acetic acid. Also L-lactic acid was produced.

[1] = system: human peripheral blood mononuclear cells (PBMC); test: PBMC cytokine levels, unstimulated condition; type: cell-based; conditions: for Relative CCL 20, observed: 0.1 w/v % 3′-GL
From the text: Isolation of PBMC from healthy donors: Human peripheral blood mononuclear cells (PBMC) from healthy donors were isolated from buffy coats (Sanquin, Amsterdam, the Netherlands). PBMC were obtained by centrifugation using Leucosep tubes (Greiner Bio-One). […] After lysis, the PBMC were resuspended in freezing medium (70% RPMI 1640 medium (Gibco, Thermo Fisher Technologies) supplemented with 10% heat-inactivated FCS and 100 U/ml penicillin-streptomycin, 20% heat-inactivated FCS and 10% DMSO (Sigma)) and cryopreserved. PBMC activation model: PBMC (0.2.10^6 cell/well) were cultured in 96-well flat bottom plates (Corning). For 24 hours the cells were pre-incubated with 2'-FL (Jennewein), 3'-GL (0-0.3% w/v; […] Sigma Aldrich) and combinations thereof. Subsequently, the cells were CD3/CD28-activated (Pelicluster CD3 and Pelicluster CD28, Sanquin) for an additional 24 hours. After incubation, IFNγ was measured by ELISA in the supernatants (see below). […] Roche) and/or 10% Triton (5 μl; negative control). […] Cytokine production of PBMC: PBMC were incubated with indicated reagents. After incubation, the supernatants were collected and IL2, IL6, IL10, IL13, IL21, TNFα, IFNγ, MIF, CCL1, CCL13, CCL17, CCL20, CCL22 and CXCL8-11 levels were measured by conducting a validated multiplex immunoassay based on Luminex technology (xMAP, Luminex Austin Tex. USA). Acquisition was conducted with the Biorad […] (Biorad laboratories, Hercules USA) in combination with xPONENT software version 4.2 (Luminex). Data was analyzed by 5-parametric curve fitting using Bio-Plex Manager software, version 6.1.1 (Biorad). After PBMC stimulation, cell culture supernatants were collected, after which cytokine responses were measured in order to test immune responsiveness of the cells. The levels of cytokines measured in stimulated conditions were corrected for the (low) levels of the cytokines measured in non-stimulated conditions. In addition, since each donor is reacting in its own efficiency onto the T cell stimulus, we calculated the individual index of cytokine response by dividing the intervention induced response by the basal stimulated response.

[2] = system: fecal slurry microbiota of breast fed infants; test: Anaerobic fermentation of infant fecal slurry (BioLector Pro), acidification; parameters: species or system human; conditions: no pathogen spiking
Description: Anaerobic fermentation of fecal slurry samples was tested in a BioLector Pro microfluidics mini multifermentor. Fecal slurry samples were collected from breast fed infants and from formula fed infants. These fecal slurry samples were processed by adding 0.6 grams feces in 40 ml Baby Reichardt V.6 medium+mucus+Ammonium sulfate+lactate and acetate. The resulting solutions were inserted to the BioLector Pro microfluidics mini multifermentor. The test legs were supplemented with 3-GL, 2′-FL, 3-GL+2′-FL, and GOS/FOS. The control leg was supplemented with sterile water.
After fermentation the fermented solutions were tested for SCFA content (in particular acetic acid, propionic acid, butyric acid and isobutyric acid), ammonia content, lactate content and pathogen concentration. Also DNA-isolation+identification and 16s sequencing was performed to determine the composition of the microbiota.
A 32 well plate that can handle low pH was used. […]
The experiment was started, and pH setpoint was either 5.5 (facial inoculum from infant 1, vaginally born, breast fed) or pH 6.0 (Inoculum from infant 2, vaginally born, breast fed) with continuous pH regulation, and temperature 37° C., humidity 85%, OD control. […] For both inocula the extent of fermentation, as measured by NaOH consumption, i.e. acid production, was highest with the combination of 3′-GU2′-FL, when compared to 3′-GL or 2′-FL alone. […]

[3] = DON 4.2 μM with 2′-FL 1 mg/ml, mean
[4] = unstimulated, relative to blanc (=1), 0.2% w/v 2′-FL, 0.2 mM butyrate, mean

Row | Molecule | effect on DON induced reduction in TEER and increase in LYF (Caco-2 cell monolayer; 2′-FL 1 mg/ml) | Lucifer yellow flux (Caco-2 cell monolayer; [3]) | TEER (% of initial value) (Caco-2 cell monolayer; [3]) | Growth of bifidobacteria (Bifidobacteria) | IL10 level compared to blanc control ([1]; 0.2% 2′-FL, 0.2 mM butyrate) | CCL20 level compared to blanc control ([1]; unstimulated) | Relative IL10 level, observed ([1]; unstimulated, relative to blanc (=1), 0.2% w/v 2′-FL, 0.2 mM butyrate, mean, 10 donors) | Relative CCL 20, observed [1, 4] | extent of fermentation, as measured by NaOH consumption, i.e. acid production ([2]; both inocula, 2.5% (w/v) carbohydrate) | effect on DON-induced loss of epithelial barrier integrity (TEER, LY flux) (Caco-2 cell monolayer; 24 h pretreatment with 0.75 wt. % GL, then DON 4.2 μM 24 h, FIGS. 1A-D) | effect on bifidobacteria (Bifidobacteria; inoculum of baby 2) | rate of initial acidification [2]
1 | C[C@@H]1O[C@@H](O[C@H]2[C@H](O[C@H]3[C@H](O)[C@@H](O)C(O)O[C@@H]3CO)O[C@H](CO)[C@H](O)[C@@H]2O)[C@@H](O)[C@H](O)[C@@H]1O (stereo partly drawn) [2′-FL, α-L-Fuc-(1→2)-β-D-Gal-(1→4)-D-Glc] | statistically significantly prevent the DON induced reduction in TEER and increase in LYF | 446.4 ng/ml (cm^2 × h) | 42.79 % of initial value | Growth of bifidobacteria was observed | significantly (p<0.05) increased level of IL10 | increased level of CCL20 | 3.361 | 2.586 | slower and lower acidification |  |  | 
2 | Gal (beta 1-3)-Gal (beta 1-4)-Glc [3′-GL] |  |  |  | Growth of bifidobacteria was observed |  | did not have a statistically significant effect |  | 1.164 |  | prevented the DON-induced loss of epithelial barrier integrity | highest | high
